According to patent US11873298B2, “Compounds and uses thereof” (JANSSEN PHARMACEUTICA NV, priority 2017, dated 2024):
“And” between values parts separate entries of the source, which are not always exact repeats. Identical values can stand only once.

Columns and labels:
Type in all cases: cell-based
Ole1 = target: T1, Ole1 (Saccharomyces cerevisiae, UniProt P21147); assay: Growth inhibition of yeast strain expressing Ole1 as sole desaturase; conditions: yeast strain expressing Ole1 as sole desaturase
T1 construct: expressed in transfected cells; host or cells: S. cerevisiae ole1Δ strain (W303 pdr1Δ pdr3Δ background), plasmid pRS316 with TDH3 promoter and CYC1 terminator
T1 sequence (P21147 1-510): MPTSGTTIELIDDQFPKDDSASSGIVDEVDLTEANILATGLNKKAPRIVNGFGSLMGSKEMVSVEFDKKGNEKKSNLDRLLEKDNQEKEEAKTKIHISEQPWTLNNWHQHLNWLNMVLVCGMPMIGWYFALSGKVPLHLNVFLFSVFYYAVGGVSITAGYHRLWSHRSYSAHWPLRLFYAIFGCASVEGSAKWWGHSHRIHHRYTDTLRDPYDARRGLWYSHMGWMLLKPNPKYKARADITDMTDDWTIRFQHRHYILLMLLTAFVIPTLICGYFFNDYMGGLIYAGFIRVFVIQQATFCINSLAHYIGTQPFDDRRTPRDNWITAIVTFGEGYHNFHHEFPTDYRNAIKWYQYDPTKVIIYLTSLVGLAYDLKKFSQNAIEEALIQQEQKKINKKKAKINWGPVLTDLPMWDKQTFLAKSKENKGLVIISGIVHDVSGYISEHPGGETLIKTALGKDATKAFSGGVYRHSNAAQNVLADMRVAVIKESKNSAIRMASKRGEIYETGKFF
In short: (§1)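 ole1Δ yeast (W303 pdr1Δ pdr3Δ background) carrying plasmid-borne Ole1, SCD1 or SCD5, grown in uracil-free media; cultures pre-grown in raffinose, seeded at 2× density 0.02 in galactose media with compound. Growth read as OD600 after 24 h at 30° C. for Ole1, 40 h for SCD1/SCD5.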

SCD1 = target: T2, SCD1 (Homo sapiens, UniProt O00767); assay: Growth inhibition of humanized yeast strain expressing SCD1 as sole desaturase; conditions: humanized yeast strain expressing SCD1
T2 construct: host or cells: S. cerevisiae ole1Δ strain (W303 pdr1Δ pdr3Δ background), plasmid pRS316 with TDH3 promoter and CYC1 terminator
T2 sequence (O00767 1-359): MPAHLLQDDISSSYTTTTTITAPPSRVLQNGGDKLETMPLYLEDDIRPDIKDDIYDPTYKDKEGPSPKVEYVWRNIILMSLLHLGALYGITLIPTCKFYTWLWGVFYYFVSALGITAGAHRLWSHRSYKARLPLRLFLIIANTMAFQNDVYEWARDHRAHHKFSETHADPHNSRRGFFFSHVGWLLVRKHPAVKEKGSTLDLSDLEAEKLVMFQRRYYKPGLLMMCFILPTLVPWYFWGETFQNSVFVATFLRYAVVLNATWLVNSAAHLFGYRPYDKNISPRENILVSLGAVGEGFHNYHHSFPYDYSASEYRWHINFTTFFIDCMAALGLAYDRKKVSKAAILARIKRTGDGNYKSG
In short: as §1

SCD5 = target: T3, SCD5 (Homo sapiens, UniProt Q86SK9); assay: Growth inhibition of humanized yeast strain expressing SCD5 as sole desaturase; conditions: humanized yeast strain expressing SCD5
T3 construct: host or cells: S. cerevisiae ole1Δ strain (W303 pdr1Δ pdr3Δ background), plasmid pRS316 with TDH3 promoter and CYC1 terminator
T3 sequence (Q86SK9 1-330): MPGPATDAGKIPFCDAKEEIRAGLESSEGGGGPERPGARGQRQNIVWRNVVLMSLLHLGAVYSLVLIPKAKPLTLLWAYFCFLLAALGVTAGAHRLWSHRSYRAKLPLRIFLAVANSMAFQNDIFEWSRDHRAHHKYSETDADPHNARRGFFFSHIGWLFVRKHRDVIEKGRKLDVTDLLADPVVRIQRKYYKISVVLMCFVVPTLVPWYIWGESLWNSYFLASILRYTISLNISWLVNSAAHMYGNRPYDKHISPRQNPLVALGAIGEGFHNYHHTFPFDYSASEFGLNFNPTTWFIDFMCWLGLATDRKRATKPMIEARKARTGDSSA
In short: as §1

Structure (SMILES)	IC50 (Ole1)	OLE1 % Max Inhibition (Ole1)	SCD1 % Max Inhibition (SCD1)	IC50 (SCD5)	SCD5 % Max Inhibition (SCD5)	IC50 (SCD1)
Cc1nn(C)c2cc(-c3noc(C4CCN(C(=O)c5cc(F)ccc5C(F)(F)F)CC4)n3)ccc12 [Compound 292]	> 45 µM	13.6%	9.5%	> 45 µM	10.2%	
Cc1nn(C)c2cc(-c3noc(N4CCN(C(=O)c5cc(F)ccc5C(F)(F)F)CC4)n3)ccc12 [Compound 293]	34.9 µM	66.4%	12.3%	> 45 µM	11.9%	> 45 µM
Cc1nn(C)c2cc(-c3noc(N4CCN(C(=O)c5ccccc5C(F)(F)F)CC4)n3)ccc12 [Compound 295]	> 45 µM	18.4%	14.4%	> 45 µM	9.2%	
COc1ccc(-c2noc(C3CCN(C(=O)C4CC(=O)N(c5cccc(C#N)c5)C4)CC3)n2)cc1OC(C)C (stereo not shown) [Compound 296]	> 45 µM	99.1%	86.6%	> 45 µM	22.6%	> 45 µM
Cc1nn(C)c2ccc(-c3noc(C4CCN(C(=O)c5ccc(C(C)C)cc5)CC4)n3)cc12 [Compound 297]	25.2 µM	42.0%	5.7%	> 45 µM	9.2%	
CCN1C(=O)CC(C)c2ccc(-c3noc(C4CCN(C(=O)CNC(=O)c5ccccc5)CC4)n3)cc21 (stereo not shown) [Compound 298]	> 45 µM	6.6%	92.3%	> 45 µM	21.3%	> 45 µM
CCn1nc(C)c2ccc(-c3noc(C4CCN(C(=O)CNC(=O)c5ccccc5)CC4)n3)cc21 [Compound 299]	> 45 µM	17.5% and 13.58%	89.6% and 62.80%	> 45 µM	30.1% and 22.61%	≥ 45 µM
Cc1nn(C)c2cc(-c3nsc(C4CCN(C(=O)OC(C)(C)C)CC4)n3)ccc12 [Compound 300]	> 45 µM	79.7%	78.1%	> 45 µM	36.0%	
CCn1nc(C)c2ccc(-c3noc(C4CCN(C(=O)OC(C)(C)C)CC4)n3)cc21 [Compound 301]	> 45 µM	99.4%	96.2%	> 45 µM	21.0%	
Cc1ccc(N2C[C@@H](C(=O)N3CCC(c4nc(-c5ccc6c(C)nn(C)c6c5)no4)CC3)CC2=O)nc1 [Compound 302]	> 45 µM	6.7% and 5.26%	71.1% and 50.17%	> 45 µM	9.4% and 10.64%	36.1 µM and ≥ 45 µM
Cc1ccc(N2C[C@H](C(=O)N3CCC(c4nc(-c5ccc6c(C)nn(C)c6c5)no4)CC3)CC2=O)nc1 [Compound 303]	> 45 µM	14.2% and 8.50%	94.3% and 65%	> 45 µM	15.6% and 20.68%	≥ 45 µM
Cc1nn(C)c2cc(-c3noc(C4CCN(C(=O)CNC(=O)c5cc(F)ccc5C(F)(F)F)CC4)n3)ccc12 [Compound 304]	> 45 µM	14.7%	74.9%	> 45 µM	51.6%	
Cc1nn(C)c2cc(-c3noc(C4CCN(C(=O)[C@H]5CC(=O)N(c6cccc(C#N)c6)C5)CC4)n3)ccc12 [Compound 305]	> 45 µM	6.6% and 4.23%	73.2% and 55.27%	> 45 µM		≥ 45 µM
Cc1nn(C)c2cc(-c3noc(C4CCN(C(=O)[C@@H]5CC(=O)N(c6cccc(C#N)c6)C5)CC4)n3)ccc12 [Compound 306]	> 45 µM	33.2% and 36.88%	67.6% and 63.32%	> 45 µM		≥ 45 µM
